The record followed here is patent US20240150334A1, “HSD17B13 INHIBITORS AND/OR DEGRADERS” (Pfizer Inc., priority 2022, published 2024).

The target of one assay is HSD17B13 enzyme (Homo sapiens (Human), UniProt Q7Z5P4). The assay is described as follows: hHSD17B13 IC50 Assay (FAC beta-estradiol), purified protein enzyme activity assay with NAD(P)H-Glo luciferase readout. The note with it: geometric mean, 12 μM FAC beta-estradiol, 500 μM NAD+, read-out: hHSD17B13_IC50 GMean IC50. The format is biochemical. Summed up: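 Purified human HSD17B13 (30 nM FAC) incubated with compound, beta-estradiol and NAD+ for 2 h at room temperature in the dark. NADH formation was detected by NAD(P)H-Glo luminescence after 1 h. RLUs normalized to uninhibited enzyme (vehicle) as zero effect.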
HSD17B13 enzyme, sequence (Q7Z5P4 20-300): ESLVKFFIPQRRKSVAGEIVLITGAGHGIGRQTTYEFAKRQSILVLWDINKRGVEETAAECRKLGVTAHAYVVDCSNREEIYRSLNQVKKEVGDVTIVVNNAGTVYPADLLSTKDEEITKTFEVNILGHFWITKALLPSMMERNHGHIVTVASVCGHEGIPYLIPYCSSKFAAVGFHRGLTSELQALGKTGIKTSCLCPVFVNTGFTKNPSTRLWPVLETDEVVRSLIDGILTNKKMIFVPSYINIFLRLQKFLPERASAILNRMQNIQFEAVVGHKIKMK

For a further assay, the target named is wild type human HSD17B13 (Homo sapiens (Human), UniProt Q7Z5P4). The assay is described as follows: HEK_Beta-Est LCMS_IC50_Tekcel, whole-cell HEK-HSD17B13 inhibition assay, estrone production by LCMS. The settings on record: geometric mean, HEK cells stably expressing wild type human HSD17B13, 25 μM FAC beta-estradiol, read-out: HEK_Beta-Est LCMS_IC50—Tekcel GMean IC50. The format is cell-based. In a few lines:
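Readout was LCMS quantitation of estrone made from beta-estradiol with NAD+ as cofactor. Whole HEK-HSD17B13 cells were given compound for 1 hour, then the reaction for 2 hours, both at 37° C. Product area ratios were normalized to vehicle controls as zero percent effect.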

Molecules are shown by their SMILES. Where a name gives a salt, the structure may show the parent alone.

wild type human HSD17B13, sequence (Q7Z5P4 20-300): as above

The term IC50 denotes the concentration that gives 50% inhibition. With `Cc1cnc(-c2ccc3cn([C@H]4CC[C@H](CNC(=O)c5cc(F)c(O)c(F)c5)CC4)nc3c2)nc1` [Example 74, 3,5-difluoro-4-hydroxy-N-({(1r,4r)-4-[6-(5-methylpyrimidin-2-yl)-2H-indazol-2-yl]cyclohexyl}methyl)benzamide], the IC50 amounted to 12 nM on HSD17B13 enzyme and 170 nM on wild type human HSD17B13.

On to `COc1cnc(-c2ccc3cn([C@H]4CC[C@H](CNC(=O)c5cc(F)c(O)c(F)c5)CC4)nc3c2)nc1` [Example 66, 3,5-difluoro-4-hydroxy-N-({(1r,4r)-4-[6-(5-methoxypyrimidin-2-yl)-2H-indazol-2-yl]cyclohexyl}methyl) benzamide], for which the IC50 at HSD17B13 enzyme turned out to be 7.5 nM; on wild type human HSD17B13, 180 nM.

Regarding `O=C(NC[C@H]1CC[C@H](c2nc(-c3ncc(C(F)(F)F)cn3)no2)CC1)c1cc(F)c(O)cc1F` [Example 198, 2,5-difluoro-4-hydroxy-N-{[(1r,4r)-4-{3-[5-(trifluoromethyl)pyrimidin-2-yl]-1,2,4-oxadiazol-5-yl}cyclohexyl]methyl} benzamide], the IC50 was 6.5 nM at HSD17B13 enzyme and 310 nM on wild type human HSD17B13.

Take `O=C(NC[C@H]1CC[C@H](n2cc3ccc(-c4cnn(C5CCOCC5)c4)cc3n2)CC1)c1cc(F)c(O)c(F)c1` [Example 12, 3,5-Difluoro-4-hydroxy-N-{[(1r,4r)-4-{6-[1-(oxan-4-yl)-1H-pyrazol-4-yl]-2H-indazol-2-yl}cyclohexyl]methyl}benzamide]: the results for the IC50 at HSD17B13 enzyme and on wild type human HSD17B13 were 11 nM and 290 nM, respectively.

In the case of `Cn1cc(-c2ccc3cn([C@H]4CC[C@H](CNC(=O)c5cc(F)c(O)c(F)c5)CC4)nc3c2)cn1` [Example 60, 3,5-difluoro-4-hydroxy-N-({(1r,4r)-4-[6-(1-methyl-1H-pyrazol-4-yl)-2H-indazol-2-yl]cyclohexyl}methyl) benzamide], the IC50 is 5.8 nM at HSD17B13 enzyme and 94 nM at wild type human HSD17B13.

With `Cc1ncc(-c2ccc3cn([C@H]4CC[C@H](CNC(=O)c5cc(F)c(O)c(F)c5)CC4)nc3c2)cn1` [Example 77, 3,5-difluoro-4-hydroxy-N-({(1r,4r)-4-[6-(2-methylpyrimidin-5-yl)-2H-indazol-2-yl]cyclohexyl}methyl) benzamide], the IC50 on HSD17B13 enzyme stood at 13 nM; at wild type human HSD17B13, 160 nM.

As for `O=C(NC[C@H]1CC[C@H](n2cc3ccc(-c4cnccn4)cc3n2)CC1)c1cc(F)c(O)c(F)c1` [Example 65, 3,5-difluoro-4-hydroxy-N-({(1r,4r)-4-[6-(pyrazin-2-yl)-2H-indazol-2-yl]cyclohexyl}methyl) benzamide], the IC50 at HSD17B13 enzyme worked out at 13 nM; at wild type human HSD17B13, 170 nM.

Turning to `O=C(NC[C@H]1CC[C@H](n2cc(-c3ccc4nccnc4c3)nn2)CC1)c1cc(F)c(O)c(F)c1` [Example 18, 3,5-Difluoro-4-hydroxy-N-({(1r,4r)-4-[4-(quinoxalin-6-yl)-1H-1,2,3-triazol-1-yl]cyclohexyl}methyl)benzamide], the IC50 at HSD17B13 enzyme came out at 18 nM; at wild type human HSD17B13, 420 nM.

`Cc1ccc(-c2noc([C@H]3CC[C@H](CNC(=O)c4cc(F)c(O)c(F)c4)CC3)n2)nn1` [Example 211, 3,5-difluoro-4-hydroxy-N-({(1r,4r)-4-[3-(6-methyl-pyridazin-3-yl)-1,2,4-oxadiazol-5-yl]cyclohexyl}methyl) benzamide]: the figures for the IC50 on HSD17B13 enzyme and on wild type human HSD17B13 were 15 nM and 2700 nM, respectively.

With `O=C(NC[C@]12CC[C@](c3nc(-c4ccc(C(F)(F)F)nc4)no3)(CC1)CC2)c1cc(F)c(O)cc1F` [Example 195, 2,5-difluoro-4-hydroxy-N-[(4-{3-[6-(trifluoromethyl)pyridin-3-yl]-1,2,4-oxadiazol-5-yl}bicyclo [2.2.2]octan-1-yl)methyl]benzamide], the concentration for half-maximal inhibition (IC50) at HSD17B13 enzyme is 16 nM; at wild type human HSD17B13, 390 nM.

For `O=C(NC[C@]12CC[C@](c3nc4ccccc4o3)(CC1)CC2)c1cc(F)c(O)c(F)c1` [Example 141, N-{[4-(1,3-benzoxazol-2-yl)bicyclo[2.2.2]octan-1-yl]methyl}-3,5-difluoro-4-hydroxybenzamide], the IC50 at HSD17B13 enzyme was 8.8 nM; at wild type human HSD17B13, 190 nM.

Take `COc1ncc(-c2cc3nn([C@H]4CC[C@H](CNC(=O)c5cc(F)c(O)c(F)c5)CC4)cc3cn2)cn1` [Example 8, 3,5-Difluoro-4-hydroxy-N-({(1r,4r)-4-[6-(2-methoxypyrimidin-5-yl)-2H-pyrazolo[4,3-c]pyridin-2-yl]cyclohexyl}methyl)benzamide]: the IC50 was 18 nM on HSD17B13 enzyme and 320 nM at wild type human HSD17B13.

`O=C(NC[C@H]1CC[C@H](n2cc3ccc(F)cc3n2)CC1)c1cc(F)c(O)c(F)c1` [Example 16, 3,5-Difluoro-N-{[(1r,4r)-4-(6-fluoro-2H-indazol-2-yl)cyclohexyl]methyl}-4-hydroxybenzamide, ammonium salt]: the IC50 worked out at 17 nM at HSD17B13 enzyme and 310 nM on wild type human HSD17B13.

In the case of `O=C(NC[C@H]1CC[C@H](c2nc(-c3ccc(C(F)(F)F)cn3)no2)CC1)c1cc(F)c(O)c(F)c1` [Example 2, 3,5-Difluoro-4-hydroxy-N-{[(1r,4r)-4-{3-[5-(trifluoromethyl)pyridin-2-yl]-1,2,4-oxadiazol-5-yl}cyclohexyl]methyl}benzamide], the IC50 on HSD17B13 enzyme was determined as 12 nM; at wild type human HSD17B13 it was 470 nM.

Take `CN1CCn2ncc(-c3ccc4cn([C@H]5CC[C@H](CNC(=O)c6cc(F)c(O)c(F)c6)CC5)nc4c3)c21` [Example 41, 3,5-difluoro-4-hydroxy-N-({(1r,4r)-4-[6-(1-methyl-2,3-dihydro-1H-imidazo[1,2-b]pyrazol-7-yl)-2H-indazol-2-yl]cyclohexyl}methyl) benzamide]: the IC50 was 21 nM at HSD17B13 enzyme and 440 nM at wild type human HSD17B13.

Consider `COc1ccc(-c2ccc3cn([C@H]4CC[C@H](CNC(=O)c5cc(F)c(O)c(F)c5)CC4)nc3c2)cc1` [Example 67, 3,5-difluoro-4-hydroxy-N-({(1r,4r)-4-[6-(4-methoxyphenyl)-2H-indazol-2-yl]cyclohexyl}methyl) benzamide], for which the IC50 came to 31 nM on HSD17B13 enzyme and 270 nM at wild type human HSD17B13.

Turning to `O=C(NC[C@H]1CC[C@H](n2cc3cc(Cl)ncc3n2)CC1)c1cc(F)c(O)c(F)c1` [Example 187, N-{[(1r,4r)-4-(5-chloro-2H-pyrazolo[3,4-c]pyridin-2-yl)cyclohexyl]methyl}-3,5-difluoro-4-hydroxybenzamide], the figures for the IC50 at HSD17B13 enzyme and on wild type human HSD17B13 were 10 nM and 400 nM, respectively.

For the compound `O=C(NC[C@]12CC[C@](c3noc(-c4ccc(OS(=O)(=O)F)cc4)n3)(CC1)CC2)c1cc(F)c(O)c(F)c1` [Example 126, 4-(3-{4-[(3,5-difluoro-4-hydroxybenzamido)methyl]bicyclo[2.2.2]octan-1-yl}-1,2,4-oxadiazol-5-yl) phenyl sulfurofluoridate], the values for the IC50 at HSD17B13 enzyme and on wild type human HSD17B13 were 16 nM and 430 nM, respectively.

For the compound `O=C(NC[C@H]1CC[C@H](n2cc3ccc(Cl)cc3n2)CC1)c1cc(F)c(O)c(F)c1F` [Example 25, N-{[(1r,4r)-4-(6-chloro-2H-indazol-2-yl)cylohexyl]methyl}-2,3,5-trifluoro-4-hydroxybenzamide], the IC50 on HSD17B13 enzyme is 14 nM; on wild type human HSD17B13, 300 nM.

As to `O=C(NC[C@H]1CC[C@H](n2cc3ccc(C(F)(F)F)cc3n2)CC1)c1cc(F)c(O)c(F)c1` [Example 137, 3,5-difluoro-4-hydroxy-N-({(1r,4r)-4-[6-(trifluoromethyl)-2H-indazol-2-yl]cyclohexyl}methyl) benzamide, ammonium salt], the IC50 was found to be 25 nM on HSD17B13 enzyme and 280 nM at wild type human HSD17B13.

Turning to `O=C(NC[C@H]1CC[C@H](n2cc3cc(C(F)(F)F)ccc3n2)CC1)c1cc(F)c(O)c(F)c1F` [Example 182, 2,3,5-trifluoro-4-hydroxy-N-({(1r,4r)-4-[5-(trifluoromethyl)-2H-indazol-2-yl]cyclohexyl}methyl) benzamide], the values for the IC50 on HSD17B13 enzyme and on wild type human HSD17B13 were 16 nM and 230 nM, respectively.

On to `O=C(NC[C@H]1CC[C@H](n2cc3cc(C(F)(F)F)ncc3n2)CC1)c1cc(F)c(O)c(F)c1` [Example 147, 3,5-difluoro-4-hydroxy-N-({(1r,4r)-4-[5-(trifluoromethyl)-2H-pyrazolo[3,4-c]pyridin-2-yl]cyclohexyl}methyl) benzamide, ammonium salt], for which the IC50 on HSD17B13 enzyme is 17 nM; at wild type human HSD17B13 it was 430 nM.

Consider `O=C(NC[C@H]1CC[C@H](n2cc3cc(Cl)ccc3n2)CC1)c1cc(F)c(O)c(F)c1` [Example 132, N-{[(1r,4r)-4-(5-chloro-2H-indazol-2-yl)cyclohexyl]methyl}-3,5-difluoro-4-hydroxybenzamide, ammonium salt], for which the IC50 was 14 nM at HSD17B13 enzyme and 140 nM on wild type human HSD17B13.

Regarding `O=C(NC[C@H]1CC[C@H](c2noc(-c3cc4ccccn4n3)n2)CC1)c1cc(F)c(O)c(F)c1` [Example 176, 3,5-difluoro-4-hydroxy-N-({(1r,4r)-4-[5-(pyrazolo[1,5-a]pyridin-2-yl)-1,2,4-oxadiazol-3-yl]cyclohexyl}methyl) benzamide], the IC50 was 11 nM on HSD17B13 enzyme and 190 nM on wild type human HSD17B13.

`O=C(NC[C@H]1CC[C@H](c2nc3ccccc3o2)CC1)c1cc(F)c(O)c(F)c1` [Example 1, N-{[(1r,4r)-4-(1,3-Benzoxazol-2-yl)cyclohexyl]methyl}-3,5-difluoro-4-hydroxybenzamide]: the values for the IC50 on HSD17B13 enzyme and on wild type human HSD17B13 were 14 nM and 490 nM, respectively.

Turning to `O=C(NC[C@H]1CC[C@H](n2cc3ccc(-c4cncnc4)cc3n2)CC1)c1cc(F)c(O)c(F)c1` [Example 76, 3,5-difluoro-4-hydroxy-N-({(1r,4r)-4-[6-(pyrimidin-5-yl)-2H-indazol-2-yl]cyclohexyl}methyl)benzamide], the values for the concentration for half-maximal inhibition (IC50) on HSD17B13 enzyme and at wild type human HSD17B13 were 19 nM and 190 nM, respectively.
